Assay results published in US9676771B2, “Compounds for inhibiting drug-resistant strains of HIV-1 integrase” (priority 2013, dated 2017).

Legend:
HIV-1 integrase = HIV-1 integrase (Human immunodeficiency virus type 1 group M subtype B, UniProt P12497); assay: biochemical; type: biochemical; settings: Table 10; strand transfer; read-out: IC50 (nM, ST)
Method in brief: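 Compounds or DMSO added to 20 nM DNA and 400 nM integrase in 50 mM MOPS pH 7.2, 7.5 mM MgCl2, 14 mM 2-mercaptoethanol; 2 h at 37° C, quenched with formamide/SDS loading buffer. Products resolved on gels, imaged and quantified by densitometry.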

[1] = test system: HIV-1 constructs containing wild-type IN; assay: microbe, parasite or virus in culture; type: cell-based; settings: Human immunodeficiency virus 1; Table 8; WT IN; read-out: EC50 (nM, WT)
[2] = test system: HIV-1 constructs containing mutant IN G140S-Q148H; assay: microbe, parasite or virus in culture; type: cell-based; settings: Human immunodeficiency virus 1; Table 8; read-out: EC50 (nM, IN mutants) G140S/Q148H
Method in brief: (§1)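 Single-round infectivity assay using luciferase-reporter pNLNgoMIVR−ΔEnv.LUC virus carrying site-directed integrase mutants, produced in 293 cells. Activity normalized to infectivity without compound; EC50 from regression fit.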

[3] = test system: HIV-1 constructs containing mutant IN N155H; assay: microbe, parasite or virus in culture; type: cell-based; settings: Human immunodeficiency virus 1; Table 8; read-out: EC50 (nM, IN mutants) N155H
Method in brief: as §1

[4] = test system: HIV-1 constructs containing mutant IN Y143R; assay: microbe, parasite or virus in culture; type: cell-based; settings: Human immunodeficiency virus 1; Table 8; read-out: EC50 (nM, IN mutants) Y143R
Method in brief: as §1

[5] = test system: HIV-1 constructs containing mutant IN G118R; assay: microbe, parasite or virus in culture; type: cell-based; settings: Human immunodeficiency virus 1; Table 8; read-out: EC50 (nM, IN mutants) G118R
Description: (§2) Single-Round HIV-1 Infectivity Assay.
(§3) Human embryonyl kidney cell culture cell line 293 was acquired from the American type Culture Collection (ATCC).
(§4) […]. […] The virus-containing supernatants were then harvested, clarified by low-speed centrifugation, filtrated, and diluted for preparation in infection assays. […] After compound incorporation and activation in the cell, 100 μL of virus-stock diluted to achieve a maximum luciferase signal between 0.2 and 1.5 RLUs was added to each well and further incubated at 37° C. for 48 hrs. […] Activity was normalized to infectivity in the absence of target compounds. KaleidaGraph (Synergy Software, Reading, Pa.) was used to perform regression analysis on the data. EC50 values were determined from the fit model.
(§5) pNLNgoMIVR^−ΔEnv.LUC has been described previously (Zhao et al. 2008). The integrase codon reading frame was removed from pNLNgoMIVR^−ΔEnv LUC (between KpnI and SalI sites) and placed between the KpnI and SalI sites of pBluescript II KS+. Using that construct as the wild-type template, we prepared the following HIV-1 Integrase-resistant mutants via the QuikChange II XL (Stratagene, La Jolla, Calif.) site-directed mutagenesis protocol: H51Y, T66I, E92Q, G118R, Y143R, Q148H, Q148K, N155H, R263K, G140S+Q148H, G140A+Q148K, E138K+Q148K, and H51Y+R263K. The following sense with cognate antisense (not shown) oligonucleotides (Integrated DNA Technologies, Coralville, Iowa) were used in the mutagenesis: H51Y, 5′-[…]-3; T66I, 5′-[…]-3′; E92Q, 5′-[…]-3′; G118R, 5′-[…]-3′; E138K, 5′-[…]-3; G140A, 5′-[…]-3; G140S, 5′-[…]-3′; Y143R, 5′-[…]-3′; Q148H, 5′-[…]-3′; Q148K, 5′-[…]-3; N155H, 5′-[…]-3′; R263K 5′-[…]-3′. The double mutation G140S+Q148H was constructed by using the previously generated Q148H mutant and the appropriate oligonucleotide for the 2nd mutation, G140S. The double mutation G140A+Q148K was made by using the Q148K mutant and the appropriate oligonucleotide for the 2nd mutation, G140A. The double mutation E138K+Q148K was made by using the Q148K mutant and the appropriate oligonucleotide for the 2nd mutation, E138K. The double mutation H51Y+R263K was constructed by using the previously generated H51Y mutant and the appropriate oligonucleotides for the 2nd mutation, R263K. The DNA sequence of each construct was verified independently by DNA sequence determination. The mutant integrase coding sequences from pBluescript II KS+ were then subcloned into pNLNgoMIVR^−ΔEnv LUC (between the KpnI and SalI sites) to produce the full-length mutant HIV-1 Integrase constructs. These DNA sequences were additionally checked independently by DNA sequence determination.

[6] = test system: HIV-1 constructs containing mutant IN R263K; assay: Single-round HIV-1 infectivity assay, IN mutant R263K; type: cell-based; settings: Human immunodeficiency virus 1; Table 8; read-out: EC50 (nM, IN mutants) R263K
Description: as §2, §3, §4, §5

`O=C(NCc1ccc(F)cc1F)c1c(O)c2c(CO)ccnc2n(O)c1=O` [XZ440, N-(2,4-Difluorobenzyl)-1,4-dihydroxy-5-(hydroxymethyl)-2-oxo-1,2-dihydro-1,8-naphthyridine-3-carboxamide] was tested, and the IC50 (HIV-1 integrase) was 14.5 ± 0.8 nM, the EC50 [1] was 7.3 nM and the EC50 [2] was 14.7 nM. The EC50 [3] was 14.9 nM, the EC50 [4] was 2.6 nM and the EC50 [5] was 23 nM. It also gave an EC50 [6] of 4 ± 1.4 nM.
